Source: ChEMBL document CHEMBL3734671, “Design and synthesis of an in vivo-efficacious PIM3 kinase inhibitor as a candidate anti-pancreatic cancer agent” (Bioorg Med Chem Lett, 2015)

Experiments:
[1] = molecular target: Serine/threonine-protein kinase pim-2 (Homo sapiens, UniProt Q9P1W9); test: Inhibition of PIM2 (unknown origin) at 200 nM by electrophoretic mobility shift assay
[2] = molecular target: T1, CYP1A2 (Homo sapiens, UniProt P05177); test: Inhibition of CYP1A2 (unknown origin) at 10 uM; assay type: ADME
T1 sequence (P05177 whole entry): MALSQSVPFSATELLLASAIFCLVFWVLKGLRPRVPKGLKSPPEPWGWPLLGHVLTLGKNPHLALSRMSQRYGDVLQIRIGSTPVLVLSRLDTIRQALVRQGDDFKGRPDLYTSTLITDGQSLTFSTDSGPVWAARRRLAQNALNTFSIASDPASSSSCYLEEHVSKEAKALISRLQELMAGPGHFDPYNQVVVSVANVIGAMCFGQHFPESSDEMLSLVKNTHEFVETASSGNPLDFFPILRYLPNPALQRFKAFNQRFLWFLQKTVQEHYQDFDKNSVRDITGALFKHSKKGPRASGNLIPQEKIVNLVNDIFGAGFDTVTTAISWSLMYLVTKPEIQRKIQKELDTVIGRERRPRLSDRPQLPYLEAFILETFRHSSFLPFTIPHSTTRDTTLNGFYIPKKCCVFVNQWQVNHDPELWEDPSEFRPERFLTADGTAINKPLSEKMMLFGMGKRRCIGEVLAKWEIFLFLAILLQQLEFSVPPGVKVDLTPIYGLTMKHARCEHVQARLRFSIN

[3] = molecular target: Serine/threonine-protein kinase Sgk1 (Homo sapiens) (UniProt O00141); test: Inhibition of SGK (unknown origin) at 200 nM by electrophoretic mobility shift assay
[4] = molecular target: Epidermal growth factor receptor (Homo sapiens) (UniProt P00533); test: Inhibition of EGFR (unknown origin) at 200 nM by electrophoretic mobility shift assay
[5] = molecular target: Proto-oncogene tyrosine-protein kinase Src (Homo sapiens) (UniProt P12931); test: Inhibition of SRC (unknown origin) at 200 nM by electrophoretic mobility shift assay
[6] = molecular target: Death-associated protein kinase 1 (Homo sapiens, UniProt P53355); test: Inhibition of DAPK1 (unknown origin) at 200 nM by electrophoretic mobility shift assay
[7] = molecular target: Serine/threonine-protein kinase PAK 4 (Homo sapiens) (UniProt O96013); test: Inhibition of PAK4 (unknown origin) at 200 nM by electrophoretic mobility shift assay
[8] = molecular target: Ephrin type-A receptor 2 (Homo sapiens) (UniProt P29317); test: Inhibition of EPHA2 (unknown origin) at 200 nM by electrophoretic mobility shift assay
[9] = molecular target: Mitogen-activated protein kinase 9 (Homo sapiens) (UniProt P45984); test: Inhibition of JNK2 (unknown origin) at 200 nM by electrophoretic mobility shift assay
[10] = molecular target: RAC-alpha serine/threonine-protein kinase (Homo sapiens) (UniProt P31749); test: Inhibition of AKT1 (unknown origin) at 200 nM by electrophoretic mobility shift assay
[11] = molecular target: Glycogen synthase kinase-3 beta (Homo sapiens, UniProt P49841); test: Inhibition of GSK3beta (unknown origin) at 200 nM by electrophoretic mobility shift assay
[12] = molecular target: CYP2C19 (Homo sapiens, UniProt P33261); test: Inhibition of CYP2C19 (unknown origin) at 10 uM; assay type: ADME
[13] = molecular target: Interleukin-1 receptor-associated kinase 4 (Homo sapiens) (UniProt Q9NWZ3); test: Inhibition of IRAK4 (unknown origin) at 200 nM by electrophoretic mobility shift assay
[14] = molecular target: AMP-activated protein kinase, AMPK (Homo sapiens) (UniProt P54646+O43741+P54619+Q9UGJ0+Q9Y478+Q13131+Q9UGI9); test: Inhibition of AMPKalpha1/beta1/gama1 (unknown origin) at 200 nM by electrophoretic mobility shift assay; assay type: protein-complex assay
[15] = molecular target: Tyrosine-protein kinase JAK3 (Homo sapiens) (UniProt P52333); test: Inhibition of JAK3 (unknown origin) at 200 nM by electrophoretic mobility shift assay
[16] = molecular target: Platelet-derived growth factor receptor alpha (Homo sapiens) (UniProt P16234); test: Inhibition of PDGFRalpha (unknown origin) at 200 nM by electrophoretic mobility shift assay
[17] = molecular target: Rho-associated protein kinase 1 (Homo sapiens) (UniProt Q13464); test: Inhibition of ROCK1 (unknown origin) at 200 nM by electrophoretic mobility shift assay
[18] = molecular target: Tyrosine-protein kinase ITK/TSK (Homo sapiens) (UniProt Q08881); test: Inhibition of ITK (unknown origin) at 200 nM by electrophoretic mobility shift assay
[19] = molecular target: Tyrosine-protein kinase Lck (Homo sapiens) (UniProt P06239); test: Inhibition of LCK (unknown origin) at 200 nM by electrophoretic mobility shift assay
[20] = molecular target: Tyrosine-protein kinase ABL1 (Homo sapiens) (UniProt P00519); test: Inhibition of ABL (unknown origin) at 200 nM by electrophoretic mobility shift assay
[21] = molecular target: Tyrosine-protein kinase SYK (Homo sapiens) (UniProt P43405); test: Inhibition of SYK (unknown origin) at 200 nM by electrophoretic mobility shift assay
[22] = molecular target: Protein-tyrosine kinase 2-beta (Homo sapiens) (UniProt Q14289); test: Inhibition of PYK2 (unknown origin) at 200 nM by electrophoretic mobility shift assay
[23] = molecular target: hERG (KCNH2) (Homo sapiens, UniProt Q12809); test: Inhibition of human ERG at 10 uM by patch-clamp method
[24] = molecular target: Vascular endothelial growth factor receptor 2 (Homo sapiens) (UniProt P35968); test: Inhibition of KDR (unknown origin) at 200 nM by electrophoretic mobility shift assay
[25] = molecular target: Protein kinase C alpha type (Homo sapiens) (UniProt P17252); test: Inhibition of PKCalpha (unknown origin) at 200 nM by electrophoretic mobility shift assay
[26] = molecular target: Serine/threonine-protein kinase pim-1 (Homo sapiens, UniProt P11309); test: Inhibition of PIM1 (unknown origin) at 200 nM by electrophoretic mobility shift assay
[27] = molecular target: Serine/threonine-protein kinase pim-3 (Homo sapiens, UniProt Q86V86); test: Inhibition of PIM3 (unknown origin) at 200 nM by electrophoretic mobility shift assay
[28] = molecular target: Serine/threonine-protein kinase Nek2 (Homo sapiens) (UniProt P51955); test: Inhibition of NEK2 (unknown origin) at 200 nM by electrophoretic mobility shift assay
[29] = molecular target: Dual specificity tyrosine-phosphorylation-regulated kinase 1B (Homo sapiens) (UniProt Q9Y463); test: Inhibition of DYRK1B (unknown origin) at 200 nM by electrophoretic mobility shift assay
[30] = molecular target: Calcium/calmodulin-dependent protein kinase type IV (Homo sapiens) (UniProt Q16566); test: Inhibition of CaMK4 (unknown origin) at 200 nM by electrophoretic mobility shift assay
[31] = molecular target: CYP2C9 (Homo sapiens, UniProt P11712); test: Inhibition of CYP2C9 (unknown origin) at 10 uM; assay type: ADME
[32] = molecular target: Mitogen-activated protein kinase kinase kinase 9 (Homo sapiens) (UniProt P80192); test: Inhibition of MLK1 (unknown origin) at 200 nM by ELISA

Chain of Protein-tyrosine kinase 2-beta (Homo sapiens) (Q14289 whole entry, looked up): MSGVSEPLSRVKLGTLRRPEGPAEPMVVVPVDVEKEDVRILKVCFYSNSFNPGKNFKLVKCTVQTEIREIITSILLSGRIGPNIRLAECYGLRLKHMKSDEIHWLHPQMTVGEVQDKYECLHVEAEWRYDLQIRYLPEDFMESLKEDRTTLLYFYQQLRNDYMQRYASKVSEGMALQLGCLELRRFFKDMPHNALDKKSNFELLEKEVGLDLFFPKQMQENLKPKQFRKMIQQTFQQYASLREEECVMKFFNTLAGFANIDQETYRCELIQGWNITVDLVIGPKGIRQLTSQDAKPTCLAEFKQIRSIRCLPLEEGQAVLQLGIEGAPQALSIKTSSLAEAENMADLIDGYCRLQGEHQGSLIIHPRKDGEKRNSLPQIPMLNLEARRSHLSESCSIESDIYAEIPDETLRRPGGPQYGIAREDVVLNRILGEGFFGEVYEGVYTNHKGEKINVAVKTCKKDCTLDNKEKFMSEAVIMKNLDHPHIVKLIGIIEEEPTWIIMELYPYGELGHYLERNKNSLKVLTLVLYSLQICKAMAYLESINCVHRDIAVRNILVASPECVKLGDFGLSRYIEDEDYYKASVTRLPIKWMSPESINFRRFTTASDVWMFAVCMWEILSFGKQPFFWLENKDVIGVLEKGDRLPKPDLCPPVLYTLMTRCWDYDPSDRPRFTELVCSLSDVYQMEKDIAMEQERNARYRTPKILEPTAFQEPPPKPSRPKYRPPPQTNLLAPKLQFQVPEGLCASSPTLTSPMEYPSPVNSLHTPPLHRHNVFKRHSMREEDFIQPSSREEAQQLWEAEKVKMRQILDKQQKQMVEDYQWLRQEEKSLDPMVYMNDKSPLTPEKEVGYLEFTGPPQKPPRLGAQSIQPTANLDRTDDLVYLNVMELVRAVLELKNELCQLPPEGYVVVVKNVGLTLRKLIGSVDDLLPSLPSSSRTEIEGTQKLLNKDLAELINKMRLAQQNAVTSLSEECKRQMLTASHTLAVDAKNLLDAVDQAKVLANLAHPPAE
Chain of Serine/threonine-protein kinase pim-1 (P11309 whole entry, looked up): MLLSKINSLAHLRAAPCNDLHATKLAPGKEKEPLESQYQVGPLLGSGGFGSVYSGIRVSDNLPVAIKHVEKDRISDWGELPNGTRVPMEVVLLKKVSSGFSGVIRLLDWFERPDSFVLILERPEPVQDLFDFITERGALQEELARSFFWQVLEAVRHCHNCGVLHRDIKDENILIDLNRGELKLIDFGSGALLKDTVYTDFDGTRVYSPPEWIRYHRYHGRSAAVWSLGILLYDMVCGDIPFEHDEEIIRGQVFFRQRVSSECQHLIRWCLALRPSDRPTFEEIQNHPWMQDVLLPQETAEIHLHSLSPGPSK
Chain of Serine/threonine-protein kinase Nek2 (Homo sapiens) (P51955 whole entry): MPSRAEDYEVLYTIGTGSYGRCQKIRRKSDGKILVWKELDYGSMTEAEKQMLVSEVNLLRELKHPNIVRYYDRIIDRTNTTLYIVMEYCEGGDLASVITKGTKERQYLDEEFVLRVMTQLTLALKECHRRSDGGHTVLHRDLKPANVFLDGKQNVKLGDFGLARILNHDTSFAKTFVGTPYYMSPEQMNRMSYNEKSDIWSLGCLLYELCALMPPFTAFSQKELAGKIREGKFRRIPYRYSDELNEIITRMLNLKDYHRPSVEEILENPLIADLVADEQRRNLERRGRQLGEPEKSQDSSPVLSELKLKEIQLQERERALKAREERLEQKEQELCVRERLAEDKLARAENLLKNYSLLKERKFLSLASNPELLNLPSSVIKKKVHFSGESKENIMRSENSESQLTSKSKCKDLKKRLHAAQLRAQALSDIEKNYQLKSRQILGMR
Chain of Calcium/calmodulin-dependent protein kinase type IV (Homo sapiens) (Q16566 whole entry): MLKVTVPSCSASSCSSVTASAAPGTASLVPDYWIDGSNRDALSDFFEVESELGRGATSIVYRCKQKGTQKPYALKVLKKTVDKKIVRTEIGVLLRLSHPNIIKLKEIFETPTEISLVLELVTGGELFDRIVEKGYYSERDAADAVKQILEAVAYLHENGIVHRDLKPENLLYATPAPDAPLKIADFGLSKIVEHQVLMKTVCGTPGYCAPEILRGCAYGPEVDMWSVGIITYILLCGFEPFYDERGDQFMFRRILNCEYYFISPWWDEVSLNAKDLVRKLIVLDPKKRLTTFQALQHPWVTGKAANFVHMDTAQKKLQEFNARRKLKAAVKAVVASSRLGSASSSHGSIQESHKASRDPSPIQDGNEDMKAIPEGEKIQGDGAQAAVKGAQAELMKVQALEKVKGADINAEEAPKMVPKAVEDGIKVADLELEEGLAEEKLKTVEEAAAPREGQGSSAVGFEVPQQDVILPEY
Chain of Interleukin-1 receptor-associated kinase 4 (Homo sapiens) (Q9NWZ3 whole entry): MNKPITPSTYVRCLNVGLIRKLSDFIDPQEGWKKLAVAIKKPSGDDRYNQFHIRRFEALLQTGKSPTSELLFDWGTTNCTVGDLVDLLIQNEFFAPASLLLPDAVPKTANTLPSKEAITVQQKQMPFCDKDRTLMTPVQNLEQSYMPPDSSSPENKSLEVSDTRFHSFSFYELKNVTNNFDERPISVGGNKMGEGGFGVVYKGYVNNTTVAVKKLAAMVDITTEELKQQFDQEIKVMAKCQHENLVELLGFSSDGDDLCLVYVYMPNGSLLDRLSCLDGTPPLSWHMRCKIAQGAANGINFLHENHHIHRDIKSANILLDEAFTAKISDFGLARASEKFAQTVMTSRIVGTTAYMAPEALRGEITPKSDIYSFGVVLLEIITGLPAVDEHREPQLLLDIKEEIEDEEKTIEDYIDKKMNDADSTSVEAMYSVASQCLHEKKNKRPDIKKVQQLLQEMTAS
Chain of Ephrin type-A receptor 2 (Homo sapiens) (P29317 whole entry): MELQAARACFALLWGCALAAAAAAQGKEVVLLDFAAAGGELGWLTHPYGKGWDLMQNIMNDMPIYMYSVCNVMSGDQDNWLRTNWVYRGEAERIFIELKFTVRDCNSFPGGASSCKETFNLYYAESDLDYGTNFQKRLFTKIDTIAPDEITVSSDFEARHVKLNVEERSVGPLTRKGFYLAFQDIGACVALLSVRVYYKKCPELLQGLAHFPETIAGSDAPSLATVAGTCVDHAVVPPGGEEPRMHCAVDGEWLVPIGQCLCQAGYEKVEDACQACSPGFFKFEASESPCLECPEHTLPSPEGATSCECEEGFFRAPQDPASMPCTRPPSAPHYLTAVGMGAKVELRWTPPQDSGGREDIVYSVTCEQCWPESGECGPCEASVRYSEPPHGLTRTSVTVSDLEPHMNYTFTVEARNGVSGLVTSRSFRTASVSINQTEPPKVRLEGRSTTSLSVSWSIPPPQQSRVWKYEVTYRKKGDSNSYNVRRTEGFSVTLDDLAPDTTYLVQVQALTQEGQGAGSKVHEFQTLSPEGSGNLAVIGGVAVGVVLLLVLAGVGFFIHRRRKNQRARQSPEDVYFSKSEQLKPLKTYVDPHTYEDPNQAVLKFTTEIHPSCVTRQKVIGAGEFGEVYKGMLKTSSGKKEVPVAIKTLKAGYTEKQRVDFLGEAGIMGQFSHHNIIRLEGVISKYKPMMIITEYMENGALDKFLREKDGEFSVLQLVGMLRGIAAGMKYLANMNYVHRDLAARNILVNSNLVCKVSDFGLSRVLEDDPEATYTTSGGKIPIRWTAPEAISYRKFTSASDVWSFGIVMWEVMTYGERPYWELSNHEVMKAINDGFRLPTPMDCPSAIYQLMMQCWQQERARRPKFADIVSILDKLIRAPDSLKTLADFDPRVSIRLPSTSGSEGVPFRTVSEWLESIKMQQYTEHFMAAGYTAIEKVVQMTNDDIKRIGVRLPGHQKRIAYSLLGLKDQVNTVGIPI
Chain of Dual specificity tyrosine-phosphorylation-regulated kinase 1B (Homo sapiens) (Q9Y463 whole entry, looked up): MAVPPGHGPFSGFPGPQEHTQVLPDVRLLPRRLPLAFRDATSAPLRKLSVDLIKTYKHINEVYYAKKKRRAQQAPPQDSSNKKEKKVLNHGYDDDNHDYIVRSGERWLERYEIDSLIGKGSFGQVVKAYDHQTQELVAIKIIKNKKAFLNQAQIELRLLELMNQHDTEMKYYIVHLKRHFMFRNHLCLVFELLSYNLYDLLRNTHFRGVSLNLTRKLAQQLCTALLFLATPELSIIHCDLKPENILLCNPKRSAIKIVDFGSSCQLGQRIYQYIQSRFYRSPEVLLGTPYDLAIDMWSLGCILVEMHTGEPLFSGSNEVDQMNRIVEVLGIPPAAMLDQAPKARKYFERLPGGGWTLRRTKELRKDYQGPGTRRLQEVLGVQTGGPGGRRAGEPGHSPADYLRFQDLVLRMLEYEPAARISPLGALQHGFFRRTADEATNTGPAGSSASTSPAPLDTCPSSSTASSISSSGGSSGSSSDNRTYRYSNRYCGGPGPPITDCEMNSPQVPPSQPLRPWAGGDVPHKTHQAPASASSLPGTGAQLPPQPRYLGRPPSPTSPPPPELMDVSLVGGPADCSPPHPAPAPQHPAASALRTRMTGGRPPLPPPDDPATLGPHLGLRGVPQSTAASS

COc1ccc2c(c1C(C)N1CCNCC1)O/C(=C\c1n[nH]c3ncccc13)C2=O (centres undefined)
inhibition [1]: 30.2%
inhibition at 10 µM [2]: 2%
inhibition [3]: 0.6%
inhibition [4]: -1%
inhibition [5]: 0.7%
inhibition [6]: 94.9%
inhibition [7]: -6.7%
inhibition [8]: -0.3%
inhibition [9]: -0.5%
inhibition [10]: 1.7%
inhibition [11]: 95%
inhibition at 10 µM [12]: 16%
inhibition [13]: -0.6%
inhibition [14]: 8.6%
inhibition [15]: 4.4%
inhibition [16]: 24.2%
inhibition [17]: 77%
inhibition [18]: 2%
inhibition [19]: 0.1%
inhibition [20]: 1%
inhibition [21]: 5.3%
inhibition [22]: 11.2%
inhibition at 10 µM [23]: 34%
inhibition [24]: 2%
inhibition [25]: 83.6%
inhibition [26]: 99.4%
inhibition [27]: 99%
inhibition [28]: -4%
inhibition [29]: 48%
inhibition [30]: -1.5%
inhibition at 10 µM [31]: < 1%
inhibition [32]: -1.8%

COc1ccc2c(c1CN1CCNCC1)O/C(=C\c1n[nH]c3ncccc13)C2=O
inhibition [1]: 28.4%
inhibition at 10 µM [2]: 33%
inhibition [3]: 4.3%
inhibition [4]: -8%
inhibition [5]: -0.9%
inhibition [6]: 80.5%
inhibition [7]: 13%
inhibition [8]: -2.2%
inhibition [9]: 1.8%
inhibition [10]: -0.2%
inhibition [11]: 76.5%
inhibition at 10 µM [12]: < 1%
inhibition [13]: -3.8%
inhibition [14]: 1.3%
inhibition [15]: 1.5%
inhibition [16]: 5.4%
inhibition [17]: 88.9%
inhibition [18]: 3.5%
inhibition [19]: -5.2%
inhibition [20]: -4.1%
inhibition [21]: -7.5%
inhibition [22]: -0.4%
inhibition at 10 µM [23]: 34%
inhibition [24]: -5%
inhibition [25]: 82.5%
inhibition [26]: 102%
inhibition [27]: 102%
inhibition [28]: -2.1%
inhibition [29]: 24.8%
inhibition [30]: -4.6%
inhibition at 10 µM [31]: < 1%
inhibition [32]: -3.4%
